These results are taken from patent US20180271097A1, “HETEROCYCLIC TRIFLUOROALKENYL COMPOUNDS HAVING A NEMATOCIDAL ACTIVITY, THEIR AGRONOMIC COMPOSITIONS AND USE THEREOF” (ISAGRO S.P.A., priority 2015, published 2018).

Each structure is given as a SMILES string.

The subject of data set [1] is tomatoes. Briefly: Phytotoxicity on tomatoes, application with already cultivating crop. Type of data set: in vivo, tomato. As to conditions: zero = no symptoms, 10 = plant destroyed. The procedure: The product was evaluated considering the possible phytotoxic effects that can jeopardize the development of the plant (a zero-ten scale was used wherein: zero=no symptoms, 10=plant destroyed) and the effectiveness with respect to nematodes. Table 6 indicates the results relating to phytotoxicity on tomatoes applying compounds 1, 2, 6, 9, 71, 75, 76 and CR1 with already cultivating crop: […]

Data set [2] has as its system Meloidogyne spp. Briefly: Nematocidal activity against Meloidogyne spp., application with already cultivating crop (tomato in pots). It is filed as in vivo. As to conditions: tomatoes, 4,000 g/hectare, repeated treatment after transplantation (already cultivating crop); for Root development: 60 days after transplantation, 100% = healthy root; for Gall index (scale 0-10) / Weight of plant: survey 60 days after transplantation. The procedure: (§1) The tests, aimed at testing the nematocidal activity of the product under consideration, were carried out using inocula taken from a breeding of Meloidogyne spp. maintained on tomato and tobacco plants in pots and grown in a greenhouse.
(§2) In order to perform the experiments, portions of roots having a large number of galls, and ground, in which larvae are present, starting from the second stage of age, were collected from the infested pots.
(§3) New pots having a diameter of 15 cm were half-filled with sterile earth. The portions of infested roots, previously cleaned, were positioned on the same in order to correctly evaluate the degree of infestation and ensure that each pot contained the same nematic charge. 200-300 g of infested earth were then added and subsequently covered with a thin layer of sterile earth.
(§4) The treatment was effected by pouring, onto the surface of the ground, 100 ml of solution in which the product to be tested was dissolved.
(§5) Tomato seedlings at a stage of two-three true leaves were transplanted into the pots thus prepared. Different tomato cultivars were adopted, having a different sensitivity to the parasite and with different growth rates. In particular, an ornamental variety (cv Microtom) was used for evaluating the final production, whose seedlings have reduced dimensions and are capable of reaching maturity of the fruit in pots and under greenhouse conditions, in about two months.
(§6) The capacity of limiting the parasite was detected, at a distance of 30 and 60 days after transplanting, considering the development of the root system (wherein 100% is the development reached by the comparative healthy root) and the presence of galls on the roots. The presence of galls in the roots was estimated using the infestation scale proposed by Bridge and Page, in which the value zero corresponds to 0% of affected root and the value of 10 corresponds to 100% of infested root.
Determination of the Nematocidal Activity Against Meloidogyne Spp. (Application with Already Cultivating Crop)
The same experimental procedure as Example 4 was adopted for evaluating the nematocidal activity of the products under examination, except for the fact that this evaluation was effected by applying the product during the development of the seedlings (according to what is indicated in the label of the commercial reference product VYDATE® (Oxamil)).
Table 5 indicates the results relating to the effectiveness of compounds 1, 2, 6 and the compound CR1 on tomatoes at a dose of 4,000 g/hectare effecting the survey 60 days after transplantation.

For data set [3], the system named is Meloidogyne spp. The experiment in a line: Nematocidal activity against Meloidogyne spp., application at the moment of transplantation (tomato in pots). It is filed as in vivo. As to conditions: tomatoes, 4,000 g/hectare, 1 treatment at the moment of transplantation; for Root development: 60 days after transplantation, 100% = healthy root; for Gall index (scale 0-10) / Weight of plant: survey 60 days after transplantation. The method, then:
as §1, §2, §3, §4, §5, §6
Determination of the Nematocidal Activity Against Meloidogyne Spp. (Application at the Moment of Transplantation)
The same experimental procedure as Example 4 was adopted for evaluating the nematocidal activity of the products under examination, except for the fact that this evaluation was effected by applying the product at the moment of transplantation.
Tables 3 and 4 indicate the results relating to the effectiveness of compounds 9, 10, 71, 75, 76 and the reference compound CR1 on tomatoes at a dose of 4,000 g/hectare effecting the survey 60 days after transplantation.

Data set [4] concerns Meloidogyne spp. The experiment in a line: Nematocidal activity against Meloidogyne spp., application 7 days before transplantation (tomato in pots). Type of data set: in vivo. As to conditions: tomatoes, 4,000 g/hectare, treatment 7 days before transplantation; for Root development: 60 days after transplantation, 100% = development of comparative healthy root; for Height of plant (cm) / Gall index (scale 0-10): assessment 60 days after transplantation; for Gall index (scale 0-10): Bridge and Page scale, 0 = 0% affected root, 10 = 100% infested root. The method, then:
Determination of the Nematocidal Activity Against Meloidogyne Spp. (Application 7 Days Before Transplantation)
as §1, §2, §3, §4, §5
The evaluation of the product under consideration was effected by treating the pots 7 days before transplantation (according to what is indicated in the label of the commercial reference product NIMITZ® (Fluensulfone)).
The product was evaluated considering the possible phytotoxic effects that can jeopardize the development of the plant (a zero-ten scale was used wherein: zero=no symptoms, 10=plant destroyed) and the effectiveness with respect to nematodes.
as §6
Table 2 indicates the results relating to the effectiveness of Compounds 1, 2 and 22 and Compounds CR1, CR2, CR3 on tomatoes at a dosage of 4,000 g/hectare, effecting the assessment 60 days after the transplantation.

With `CC(C)c1nnc(S(=O)(=O)CCC(F)=C(F)F)s1` [Nr 6], the “Phytotoxicity (scale 0-10)” value in data set [1] was 0 scale 0-10. Further, in data set [2], the Root development was determined as 95%, the “Gall index (scale 0-10)” value is 2.0 scale 0-10 and the “Weight of plant” value worked out at 40 g.

For `CC1(C)CC([S+]([O-])CCC(F)=C(F)F)=NO1` (stereo not shown) [Nr 75], in data set [1], the “Phytotoxicity (scale 0-10)” value is reported as 0 scale 0-10. In data set [3] (Table 4 test), the Root development is 100%, the “Gall index (scale 0-10)” value was determined as 1.0 scale 0-10 and the “Weight of plant” value came out at 50 g.

Turning to `CC(C)Cc1nnc([S+]([O-])CCC(F)=C(F)F)s1` (stereo not shown) [Nr 9], the “Phytotoxicity (scale 0-10)” value in data set [1] came out at 0 scale 0-10. Moreover, in data set [3] (Table 3 test), the Root development is 70%, the “Gall index (scale 0-10)” value is 2.0 scale 0-10 and the “Weight of plant” value came to 116 g.

`Cc1nnc(S(=O)(=O)CCC=C(F)F)s1` [CR3, 2-(4,4-difluoro-3-butenylsulfonyl)-5-methyl-1,3,4-thiadiazole, reference compound]: in data set [4], the Root development came to 75%, the “Height of plant (cm)” value was 70 cm and the “Gall index (scale 0-10)” value is listed as 1.5 scale 0-10.

Consider `CC1(C)CC(S(=O)(=O)CCC(F)=C(F)F)=NO1` [Nr 76], for which the “Phytotoxicity (scale 0-10)” value in data set [1] is reported as 0 scale 0-10. For the same compound, in data set [3] (Table 4 test), the Root development was determined as 100%, the “Gall index (scale 0-10)” value was determined as 1.5 scale 0-10 and the “Weight of plant” value came to 51 g.

In the case of `Cc1nnc(S(=O)(=O)CCC(F)=C(F)F)s1` [Nr 2, 2-(3,4,4-trifluoro-3-butenylsulfonyl)-5-methyl-1,3,4-thiadiazole], the “Phytotoxicity (scale 0-10)” value in data set [1] is recorded as 0 scale 0-10. In data set [4], the Root development amounted to 95%, the “Height of plant (cm)” value was determined as 76 cm and the “Gall index (scale 0-10)” value is recorded as 1.0 scale 0-10. In addition, in data set [2], the Root development is 100%, the “Gall index (scale 0-10)” value is recorded as 0.0 scale 0-10 and the “Weight of plant” value worked out at 33 g.

On to `Cc1nnc([S+]([O-])CCC(F)=C(F)F)s1` (stereo not shown) [Nr 1, 2-(3,4,4-trifluoro-3-butenylsulfinyl)-5-methyl-1,3,4-thiadiazole], for which, in data set [1], the “Phytotoxicity (scale 0-10)” value worked out at 0 scale 0-10. Besides, in data set [4], the Root development is recorded as 95%, the “Height of plant (cm)” value was determined as 75 cm and the “Gall index (scale 0-10)” value turned out to be 1.0 scale 0-10. Also, in data set [2], the Root development is given as 100%, the “Gall index (scale 0-10)” value turned out to be 1.0 scale 0-10 and the “Weight of plant” value was found to be 36 g.

Consider `CC(C)Cc1nnc(S(=O)(=O)CCC(F)=C(F)F)s1` [Nr 10], for which, in data set [3] (Table 3 test), the Root development stood at 75%, the “Gall index (scale 0-10)” value is given as 2.0 scale 0-10 and the “Weight of plant” value is reported as 88 g.

Regarding `Cc1nnc(SCCC(F)=C(F)F)s1` [CR2, 2-(3,4,4-trifluoro-3-butenylthio)-5-methyl-1,3,4-thiadiazole, reference compound], in data set [4], the Root development stood at 70%, the “Height of plant (cm)” value was 60 cm and the “Gall index (scale 0-10)” value is reported as 2.0 scale 0-10.

Regarding `O=S(=O)(CCC(F)=C(F)F)c1nnc(Cl)s1` [Nr 22, 2-(3,4,4-trifluoro-3-butenylsulfonyl)-5-chloro-1,3,4-thiadiazole], in data set [4], the Root development worked out at 90%, the “Height of plant (cm)” value stood at 73 cm and the “Gall index (scale 0-10)” value is listed as 1.5 scale 0-10.

For `O=S(=O)(CCC(F)=C(F)F)c1ncc(Cl)s1` [CR1, 5-chloro-2-(3,4,4-trifluoro-3-butenylsulfonyl)-thiazole, reference compound], the “Phytotoxicity (scale 0-10)” value in data set [1] was 3 scale 0-10. In data set [4], the Root development stood at 70%, the “Height of plant (cm)” value is 71 cm and the “Gall index (scale 0-10)” value was 2.0 scale 0-10. Besides, in data set [2], the Root development was 32%, the “Gall index (scale 0-10)” value is 1.5 scale 0-10 and the “Weight of plant” value is on record as 25 g. Moreover, in data set [3] (Table 3 test), the Root development is 60%, the “Gall index (scale 0-10)” value is on record as 1.5 scale 0-10 and the “Weight of plant” value came out at 62 g. Also, in data set [3] (Table 4 test), the Root development came to 80%, the “Gall index (scale 0-10)” value was found to be 1.0 scale 0-10 and the “Weight of plant” value is 50 g.
